From PMC4962987, “Identification of Chalcones as Fasciola hepatica Cathepsin L Inhibitors Using a Comprehensive Experimental and Computational Approach” (PLoS Neglected Tropical Diseases, 2016)

Tests used:
FhCL1 [1] = target: T1, FhCL1 (Fasciola hepatica, UniProt Q7JNQ9); assay: fluorogenic Z-VLK-AMC enzyme assay, % inhibition at […]; format: biochemical
T1 construct: gene CL1

FhCL1 [2] = target: T2, FhCL1 (Fasciola hepatica, UniProt Q7JNQ9); assay: biochemical; parameters: fluorogenic peptide-AMC hydrolysis (Z-VLK-AMC FhCL1, Tos-GPR-AMC FhCL3), initial rates, 5 min preincubation
T2 construct: gene CL1
T2 sequence (Q7JNQ9 108-326): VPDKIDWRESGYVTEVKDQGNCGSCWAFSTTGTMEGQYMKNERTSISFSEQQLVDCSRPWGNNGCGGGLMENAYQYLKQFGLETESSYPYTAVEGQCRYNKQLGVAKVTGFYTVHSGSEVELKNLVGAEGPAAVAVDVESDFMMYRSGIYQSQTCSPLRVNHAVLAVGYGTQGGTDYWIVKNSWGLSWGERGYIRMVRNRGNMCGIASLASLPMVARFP
Procedure: (§1) A 10 mM stock of each evaluated compound was prepared in dimethylsulfoxide (DMSO). Enzyme activity assays were conducted to evaluate the inhibitory capacity of the different compounds. FhCL1 and FhCL3 were used at nanomolar concentrations to measure initial rates during the first 10 min of the assay and compounds were tested at a moderate fixed dose of 10 μM. Briefly, each enzyme and compound were preincubated 5 minutes in a 96-well plate in 0.1M sodium phosphate buffer pH 6, 1 mM DTT and 1 mM EDTA at room temperature. The reaction was initiated by the addition of 20 μM of substrate, a synthetic peptide conjugated to the fluorophore 7-amino-4-methylcoumarin (AMC). Enzyme activity was measured by the increase in AMC fluorescence as peptide substrates were hydrolyzed (Z-VLK-AMC for FhCL1 and Tos-GPR-AMC for FhCL3) at an excitation wavelength of 340 nm and emission wavelength of 440 nm using a spectrofluorometer (Varioskan Thermo). Enzyme activity was expressed as RFU/s (relative fluorescence units of AMC released per unit of time). Each compound was tested in duplicate. A progress curve without enzyme was performed to control for non-catalyzed reactions between substrates and inhibitors and a spectrum from 300 to 450 nm wavelength was done for each inhibitor to verify that none of the compounds has optical activity in the measurement range. The percentage of enzyme inhibition was calculated as: 100 - (vi/vo) x 100, where vi and vo correspond to the initial rate of AMC fluorescence increase (RFU/s) with and without inhibitor, respectively. We evaluated forty flavonoids from three structural clusters of our own chemistry library as inhibitors of FhCL1 and FhCL3. Cluster I contained twenty-six chalcones modified in ring B (C1-C26, Fig 1A), cluster II contained naphtolchalcone derivatives (C27-C35, Fig 1B) and cluster III was composed of flavones modified in ring B (C36-C40, Fig 1B). Initially, we screened the compounds at a low concentration of 10 μM measuring initial rates during the first 10 min, finding activities ranging from 0% to 75% enzyme inhibition (Fig 1).

FhCL3 [3] = target: T3, FhCL3 (Fasciola hepatica, UniProt B3TM67); assay: biochemical; parameters: fluorogenic peptide-AMC hydrolysis (Z-VLK-AMC FhCL1, Tos-GPR-AMC FhCL3), initial rates, 5 min preincubation; settings: read-out: % inh. FhCL3
T3 construct: gene CL3
T3 sequence (B3TM67 88-306): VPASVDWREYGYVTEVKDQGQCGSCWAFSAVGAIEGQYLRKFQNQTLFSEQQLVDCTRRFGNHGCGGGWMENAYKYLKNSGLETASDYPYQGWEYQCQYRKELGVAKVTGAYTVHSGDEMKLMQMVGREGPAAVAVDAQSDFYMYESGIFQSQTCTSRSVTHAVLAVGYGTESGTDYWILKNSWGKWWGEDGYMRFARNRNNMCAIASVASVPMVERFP
Procedure: as §1

FhCL1 [4] = target: T1, FhCL1; assay: biochemical; parameters: fluorogenic peptide-AMC hydrolysis (Z-VLK-AMC FhCL1, Tos-GPR-AMC FhCL3), initial rates, 5 min preincubation; remark: listed apart in the source
Procedure: as §1

FhCL3 [5] = target: T4, FhCL3 (Fasciola hepatica, UniProt B3TM67); assay: biochemical; parameters: fluorogenic peptide-AMC hydrolysis (Z-VLK-AMC FhCL1, Tos-GPR-AMC FhCL3), initial rates, 5 min preincubation; settings: read-out: % inh. FhCL3; remark: listed apart in the source
T4 construct: gene CL3
Procedure: as §1

FhCL3 [6] = target: T4, FhCL3; assay: fluorogenic Tos-GPR-AMC enzyme assay, % inhibition at […]; format: biochemical

Structure (SMILES)	inhibition at 10 µM (FhCL1 [2]) [%]	inhibition at 10 µM (FhCL3 [3]) [%]	other results
O=C(/C=C/c1ccc(Cl)cc1)c1ccccc1O [C10]	–	–	inhibition at 10 µM (FhCL1 [1]): 63%
O=C(/C=C/c1ccccn1)c1ccccc1O [C22]	54 ± 7	0	–
O=C(/C=C/c1ccco1)c1ccccc1O [C23]	57 ± 8	4 ± 10	–
O=C(/C=C/c1cccs1)c1ccccc1O [C24]	52 ± 5	9 ± 11	–
O=C(/C=C/c1ccccc1)c1ccc2ccccc2c1 [C27]	–	13 ± 4	inhibition at 10 µM (FhCL1 [1]): 65%
O=C(/C=C/c1cccc2ccccc12)c1ccccc1 [C28]	38 ± 3	39 ± 5	–
O=C(CC(CC(=O)c1ccccc1)c1cccc2ccccc12)c1ccccc1 [C29]	17 ± 9	27 ± 2	–
O=C(/C=C/c1ccc2ccccc2c1)c1ccccc1 [C30]	62 ± 2	38 ± 7	–
O=C(/C=C/c1ccc2ccccc2c1)c1ccccc1O [C31]	61 ± 2	41 ± 5	–
O=C(/C=C/c1cccc2ccccc12)c1ccccc1O [C32]	42 ± 6	32 ± 8	–
O=C(/C=C/c1ccc2ccccc2c1)c1ccc2ccccc2c1O [C33]	65 ± 6	29 ± 5	–
O=C(/C=C/c1cccc2ccccc12)c1c(O)ccc2ccccc12 [C34]	–	–	inhibition at 10 µM (FhCL1 [4]): 75 ± 4%; inhibition at 10 µM (FhCL3 [5]): 65 ± 6%
O=C(/C=C/c1ccc2ccccc2c1)c1c(O)ccc2ccccc12 [C35]	67 ± 3	44 ± 6	inhibition at 10 µM (FhCL1 [1]): > 50%; inhibition at 10 µM (FhCL3 [6]): > 50%
O=c1cc(-c2ccccc2)oc2ccccc12 [C36]	5 ± 1	8 ± 4	–
O=c1cc(-c2ccc(Cl)cc2)oc2ccccc12 [C37]	0	17 ± 1	–
O=c1cc(-c2ccc(Br)cc2)oc2ccccc12 [C38]	21 ± 10	19 ± 3	–
COc1ccc(-c2cc(=O)c3ccccc3o2)cc1 [C39]	20 ± 7	0	–
O=c1c(O)c(-c2ccc(O)c(O)c2)oc2cc(O)cc(O)c12 [C40, Quercetin]	–	–	inhibition at 10 µM (FhCL1 [4]): 15 ± 8%; inhibition at 10 µM (FhCL3 [5]): 8 ± 1%
